What was measured:
Test in all cases: 33PanQinase kinome-wide selectivity profile (Reaction Biology)
Format in all cases: biochemical
[1] = biological target: T1, 350 wild-type kinases (Homo sapiens, UniProt Q13705); conditions: kinase ACVR2B, ATP 1 µM, singlicate
T1 construct: purchased Reaction Biology (assay service)
Method: (§1) Compound RN341 was tested at two concentrations of 1 and 10 μM against a panel of 350 wild-type kinases in the ^33PanQinase assay. The assay was performed by Reaction Biology (www.reactionbiology.com/services/kinase-assays/kinase-panel-screening/).

[2] = biological target: T2, 350 wild-type kinases (Homo sapiens, UniProt P10398, Y301D/Y302D); conditions: kinase ARAF YDYD (constitutively active variant), ATP 1 µM, singlicate
T2 construct: purchased Reaction Biology (assay service)
Method: as §1

[3] = biological target: T3, 350 wild-type kinases (Homo sapiens, UniProt P41279); conditions: kinase COT, ATP 0,3 µM, singlicate
T3 construct: purchased Reaction Biology (assay service)
Method: as §1

[4] = biological target: T4, 350 wild-type kinases (Homo sapiens, UniProt O96017); conditions: kinase CHK2, ATP 1 µM, singlicate
T4 construct: purchased Reaction Biology (assay service)
Method: as §1

[5] = biological target: T5, 350 wild-type kinases (Homo sapiens, UniProt Q96GD4); conditions: kinase AuroraB, ATP 10 µM, singlicate
T5 construct: purchased Reaction Biology (assay service)
Method: as §1

[6] = biological target: T6, 350 wild-type kinases (Homo sapiens, UniProt P19784); conditions: kinase CK2alpha2, ATP 0,1 µM, singlicate
T6 construct: purchased Reaction Biology (assay service)
Method: as §1

[7] = biological target: T7, 350 wild-type kinases (Homo sapiens, UniProt Q9UIK4); conditions: kinase DAPK2, ATP 0,1 µM, singlicate
T7 construct: purchased Reaction Biology (assay service)
Method: as §1

[8] = biological target: T8, 350 wild-type kinases (Homo sapiens, UniProt P48730); conditions: kinase CK1delta, ATP 0,3 µM, singlicate
T8 construct: purchased Reaction Biology (assay service)
Method: as §1

[9] = biological target: T9, 350 wild-type kinases (Homo sapiens, UniProt Q8IWQ3); conditions: kinase BRSK2, ATP 1 µM, singlicate
T9 construct: purchased Reaction Biology (assay service)
Method: as §1

[10] = biological target: T10, 350 wild-type kinases (Homo sapiens, UniProt Q5S007); conditions: 1 and 10 μM; authors think kinase was inactive in panel
T10 construct: purchased Reaction Biology (assay service)
Method: as §1

[11] = biological target: T11, 350 wild-type kinases (Homo sapiens, UniProt Q8N568); conditions: kinase DCAMKL2, ATP 1 µM, singlicate
T11 construct: purchased Reaction Biology (assay service)
Method: as §1

[12] = biological target: T12, 350 wild-type kinases (Homo sapiens, UniProt Q9UM73); conditions: kinase ALK, ATP 0,3 µM, singlicate
T12 construct: purchased Reaction Biology (assay service)
Method: as §1

[13] = biological target: T13, 350 wild-type kinases (Homo sapiens, UniProt Q06187); conditions: kinase BTK, ATP 3 µM, singlicate
T13 construct: purchased Reaction Biology (assay service)
Method: as §1

[14] = biological target: T14, 350 wild-type kinases (Homo sapiens, UniProt Q14004); conditions: kinase CDK13/CycK, ATP 0,1 µM, singlicate
T14 construct: purchased Reaction Biology (assay service)
Method: as §1

[15] = biological target: T15, 350 wild-type kinases (Homo sapiens, UniProt O14578); conditions: kinase CIT 1-450, ATP 0,1 µM, singlicate
T15 construct: purchased Reaction Biology (assay service)
Method: as §1

[16] = biological target: T16, 350 wild-type kinases (Homo sapiens, UniProt P36896); conditions: kinase ACVR1B, ATP 3 µM, singlicate
T16 construct: purchased Reaction Biology (assay service)
Method: as §1

[17] = biological target: T17, 350 wild-type kinases (Homo sapiens, UniProt Q00534); conditions: singlicate; for Residual activity (% of control), CDK6/CycD1: kinase CDK6/CycD1, ATP 3 µM; for Residual activity (% of control), CDK6/CycD2: kinase CDK6/CycD2, ATP 10 µM; for Residual activity (% of control), CDK6/CycD3: kinase CDK6/CycD3, ATP 30 µM
T17 construct: purchased Reaction Biology (assay service)
Method: as §1

[18] = biological target: T18, 350 wild-type kinases (Homo sapiens, UniProt P33981); conditions: 1 μM, TTK; read-out: TTK activity, % of control
T18 construct: purchased Reaction Biology (assay service)
Method: as §1

[19] = biological target: T19, 350 wild-type kinases (Homo sapiens, UniProt Q13131); conditions: kinase AMPKalpha1, ATP 3 µM, singlicate
T19 construct: purchased Reaction Biology (assay service)
Method: as §1

[20] = biological target: T20, 350 wild-type kinases (Homo sapiens, UniProt P07333); conditions: kinase CSF1R, ATP 0,3 µM, singlicate
T20 construct: purchased Reaction Biology (assay service)
Method: as §1

[21] = biological target: T21, 350 wild-type kinases (Homo sapiens, UniProt Q00526); conditions: ATP 3 µM, singlicate; for Residual activity (% of control), CDK3/CycC: kinase CDK3/CycC; for Residual activity (% of control), CDK3/CycE1: kinase CDK3/CycE1
T21 construct: purchased Reaction Biology (assay service)
Method: as §1

[22] = biological target: T22, 350 wild-type kinases (Homo sapiens, UniProt P31749); conditions: kinase AKT1, ATP 1 µM, singlicate
T22 construct: purchased Reaction Biology (assay service)
Method: as §1

[23] = biological target: T23, 350 wild-type kinases (Homo sapiens, UniProt P11802); conditions: singlicate; for Residual activity (% of control), CDK4/CycD1: kinase CDK4/CycD1; for Residual activity (% of control), CDK4/CycD1 / Residual activity (% of control), CDK4/CycD2: ATP 3 µM; for Residual activity (% of control), CDK4/CycD2: kinase CDK4/CycD2; for Residual activity (% of control), CDK4/CycD3: kinase CDK4/CycD3, ATP 10 µM
T23 construct: purchased Reaction Biology (assay service)
Method: as §1

T21 sequence (Q00526 whole entry): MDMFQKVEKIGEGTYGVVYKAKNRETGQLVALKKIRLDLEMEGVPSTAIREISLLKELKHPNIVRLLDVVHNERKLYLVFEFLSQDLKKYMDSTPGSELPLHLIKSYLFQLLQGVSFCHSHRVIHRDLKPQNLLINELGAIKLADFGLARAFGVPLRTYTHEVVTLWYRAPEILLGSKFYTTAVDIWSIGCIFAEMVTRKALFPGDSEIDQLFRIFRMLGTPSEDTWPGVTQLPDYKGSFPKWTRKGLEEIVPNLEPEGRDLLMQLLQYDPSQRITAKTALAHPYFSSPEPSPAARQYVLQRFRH
T17 sequence (Q00534 whole entry): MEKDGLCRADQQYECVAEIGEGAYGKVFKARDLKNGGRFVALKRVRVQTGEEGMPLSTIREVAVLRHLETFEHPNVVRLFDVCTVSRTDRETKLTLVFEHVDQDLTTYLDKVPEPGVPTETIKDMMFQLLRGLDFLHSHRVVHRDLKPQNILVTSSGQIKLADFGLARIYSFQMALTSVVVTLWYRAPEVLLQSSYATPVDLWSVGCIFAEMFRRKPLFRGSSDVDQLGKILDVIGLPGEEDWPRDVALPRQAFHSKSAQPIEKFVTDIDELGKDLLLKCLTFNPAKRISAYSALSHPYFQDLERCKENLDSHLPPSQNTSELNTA
T23 sequence (P11802 whole entry): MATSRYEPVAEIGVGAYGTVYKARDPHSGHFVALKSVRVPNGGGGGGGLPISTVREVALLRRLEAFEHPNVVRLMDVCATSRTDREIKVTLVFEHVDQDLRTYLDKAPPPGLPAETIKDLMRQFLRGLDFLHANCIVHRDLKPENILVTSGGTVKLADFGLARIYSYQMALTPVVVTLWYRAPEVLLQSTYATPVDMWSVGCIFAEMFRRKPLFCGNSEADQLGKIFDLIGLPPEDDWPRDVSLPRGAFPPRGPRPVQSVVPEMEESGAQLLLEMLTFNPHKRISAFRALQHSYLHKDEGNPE
T15 sequence (O14578 whole entry): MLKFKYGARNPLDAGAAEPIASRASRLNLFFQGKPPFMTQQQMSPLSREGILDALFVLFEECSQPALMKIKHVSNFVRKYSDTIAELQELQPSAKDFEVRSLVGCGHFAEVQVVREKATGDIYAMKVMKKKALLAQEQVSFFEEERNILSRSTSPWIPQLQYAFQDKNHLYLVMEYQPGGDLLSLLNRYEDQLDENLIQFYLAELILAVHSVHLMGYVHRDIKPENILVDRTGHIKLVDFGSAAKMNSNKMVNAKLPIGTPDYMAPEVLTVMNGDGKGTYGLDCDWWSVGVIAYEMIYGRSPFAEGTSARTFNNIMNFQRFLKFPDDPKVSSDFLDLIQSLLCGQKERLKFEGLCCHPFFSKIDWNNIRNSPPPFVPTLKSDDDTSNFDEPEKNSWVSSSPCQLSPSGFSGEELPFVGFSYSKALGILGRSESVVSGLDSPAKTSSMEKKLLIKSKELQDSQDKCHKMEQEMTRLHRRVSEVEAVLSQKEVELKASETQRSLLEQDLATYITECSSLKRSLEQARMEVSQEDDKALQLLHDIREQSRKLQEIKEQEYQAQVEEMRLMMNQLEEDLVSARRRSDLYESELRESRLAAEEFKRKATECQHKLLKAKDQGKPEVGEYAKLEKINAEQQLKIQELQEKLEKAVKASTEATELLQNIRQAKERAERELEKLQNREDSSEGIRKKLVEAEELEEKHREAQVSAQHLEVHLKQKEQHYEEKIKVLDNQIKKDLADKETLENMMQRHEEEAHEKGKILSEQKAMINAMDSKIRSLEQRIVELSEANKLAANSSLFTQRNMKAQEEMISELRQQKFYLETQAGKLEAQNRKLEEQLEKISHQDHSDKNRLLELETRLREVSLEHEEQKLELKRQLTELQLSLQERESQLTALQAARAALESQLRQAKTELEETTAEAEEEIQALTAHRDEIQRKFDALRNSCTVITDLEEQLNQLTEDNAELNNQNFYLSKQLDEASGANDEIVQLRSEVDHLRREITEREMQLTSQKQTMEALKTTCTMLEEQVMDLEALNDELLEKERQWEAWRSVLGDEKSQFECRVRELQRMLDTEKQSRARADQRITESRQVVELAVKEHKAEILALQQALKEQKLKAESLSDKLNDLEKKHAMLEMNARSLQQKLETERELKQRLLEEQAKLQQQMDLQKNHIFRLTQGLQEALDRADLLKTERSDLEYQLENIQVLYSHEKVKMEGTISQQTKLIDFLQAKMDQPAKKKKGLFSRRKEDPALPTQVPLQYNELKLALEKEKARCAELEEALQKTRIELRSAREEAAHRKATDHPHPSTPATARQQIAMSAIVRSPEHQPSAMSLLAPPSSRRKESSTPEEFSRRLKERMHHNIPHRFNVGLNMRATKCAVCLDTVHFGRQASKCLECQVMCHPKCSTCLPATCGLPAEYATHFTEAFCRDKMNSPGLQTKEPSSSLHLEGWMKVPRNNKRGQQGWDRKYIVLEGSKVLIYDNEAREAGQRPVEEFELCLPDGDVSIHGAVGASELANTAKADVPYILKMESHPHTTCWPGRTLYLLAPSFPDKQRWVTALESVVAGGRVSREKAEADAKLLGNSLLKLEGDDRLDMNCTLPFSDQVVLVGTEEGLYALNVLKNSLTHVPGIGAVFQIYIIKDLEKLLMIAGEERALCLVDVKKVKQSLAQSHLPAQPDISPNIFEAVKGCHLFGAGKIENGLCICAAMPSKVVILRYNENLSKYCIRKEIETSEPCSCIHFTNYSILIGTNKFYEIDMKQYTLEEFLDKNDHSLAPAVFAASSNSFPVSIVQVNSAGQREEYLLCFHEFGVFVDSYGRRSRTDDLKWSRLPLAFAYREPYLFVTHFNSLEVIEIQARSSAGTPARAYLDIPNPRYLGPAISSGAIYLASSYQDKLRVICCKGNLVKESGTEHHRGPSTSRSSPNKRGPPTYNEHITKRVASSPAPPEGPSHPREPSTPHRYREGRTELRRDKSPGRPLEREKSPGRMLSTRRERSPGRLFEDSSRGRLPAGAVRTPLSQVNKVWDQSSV
T3 sequence (P41279 whole entry): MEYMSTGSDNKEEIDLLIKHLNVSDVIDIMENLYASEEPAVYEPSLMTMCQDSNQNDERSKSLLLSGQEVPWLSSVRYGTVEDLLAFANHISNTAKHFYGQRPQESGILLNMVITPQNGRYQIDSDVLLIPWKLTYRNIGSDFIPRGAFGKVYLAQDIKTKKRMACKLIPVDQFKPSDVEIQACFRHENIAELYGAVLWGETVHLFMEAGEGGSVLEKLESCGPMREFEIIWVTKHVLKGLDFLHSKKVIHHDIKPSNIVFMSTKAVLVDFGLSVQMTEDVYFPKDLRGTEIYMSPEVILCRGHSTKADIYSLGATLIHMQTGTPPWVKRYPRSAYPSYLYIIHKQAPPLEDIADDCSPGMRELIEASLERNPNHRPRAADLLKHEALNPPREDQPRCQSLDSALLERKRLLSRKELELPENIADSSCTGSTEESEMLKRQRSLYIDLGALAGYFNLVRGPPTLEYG
T9 sequence (Q8IWQ3 whole entry): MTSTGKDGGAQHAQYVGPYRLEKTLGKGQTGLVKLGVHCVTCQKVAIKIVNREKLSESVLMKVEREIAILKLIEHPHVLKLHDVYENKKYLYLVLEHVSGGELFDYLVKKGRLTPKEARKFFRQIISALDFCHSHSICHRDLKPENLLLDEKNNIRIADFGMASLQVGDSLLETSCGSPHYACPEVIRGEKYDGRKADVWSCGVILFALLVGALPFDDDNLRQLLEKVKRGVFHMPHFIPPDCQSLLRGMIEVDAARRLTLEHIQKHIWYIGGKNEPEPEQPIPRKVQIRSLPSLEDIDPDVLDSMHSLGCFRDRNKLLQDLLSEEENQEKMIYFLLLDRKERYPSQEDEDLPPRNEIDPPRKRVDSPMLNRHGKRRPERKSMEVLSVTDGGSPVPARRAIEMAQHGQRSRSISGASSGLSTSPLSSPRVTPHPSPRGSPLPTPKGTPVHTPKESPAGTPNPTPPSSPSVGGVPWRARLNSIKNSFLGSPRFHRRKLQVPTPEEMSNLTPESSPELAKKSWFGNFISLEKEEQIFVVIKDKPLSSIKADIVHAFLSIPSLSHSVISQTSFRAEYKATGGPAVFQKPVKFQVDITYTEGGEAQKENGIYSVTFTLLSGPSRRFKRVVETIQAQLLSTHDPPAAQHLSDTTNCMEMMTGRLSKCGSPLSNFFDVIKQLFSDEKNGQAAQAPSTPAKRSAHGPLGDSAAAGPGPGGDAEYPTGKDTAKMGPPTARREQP
T16 sequence (P36896 24-505): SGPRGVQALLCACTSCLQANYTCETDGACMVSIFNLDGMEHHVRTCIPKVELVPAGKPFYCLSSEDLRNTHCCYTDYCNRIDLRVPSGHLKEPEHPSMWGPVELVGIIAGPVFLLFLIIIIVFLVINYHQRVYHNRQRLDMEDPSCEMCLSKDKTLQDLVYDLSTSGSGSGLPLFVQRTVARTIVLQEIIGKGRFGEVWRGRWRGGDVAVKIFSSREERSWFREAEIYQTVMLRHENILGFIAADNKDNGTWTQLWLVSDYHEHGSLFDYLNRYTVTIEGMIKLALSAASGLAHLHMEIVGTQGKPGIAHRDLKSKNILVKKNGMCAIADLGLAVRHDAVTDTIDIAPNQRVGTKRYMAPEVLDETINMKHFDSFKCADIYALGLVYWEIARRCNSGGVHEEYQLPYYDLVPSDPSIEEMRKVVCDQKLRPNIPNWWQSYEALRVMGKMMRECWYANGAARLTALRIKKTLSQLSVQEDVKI
T7 sequence (Q9UIK4 whole entry): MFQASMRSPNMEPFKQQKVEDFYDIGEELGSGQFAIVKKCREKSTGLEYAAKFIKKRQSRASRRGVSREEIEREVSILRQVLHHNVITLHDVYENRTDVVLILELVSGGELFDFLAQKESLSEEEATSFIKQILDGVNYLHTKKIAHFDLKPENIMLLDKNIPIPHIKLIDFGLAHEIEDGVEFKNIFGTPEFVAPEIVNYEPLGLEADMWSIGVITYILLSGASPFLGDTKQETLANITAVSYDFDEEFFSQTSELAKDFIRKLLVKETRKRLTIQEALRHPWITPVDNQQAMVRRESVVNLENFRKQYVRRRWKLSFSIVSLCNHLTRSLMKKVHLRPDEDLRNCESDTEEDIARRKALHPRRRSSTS

Compound: CCSc1nc(NC)c2c(-c3cccc(NC(=O)Nc4cc(C(C)(C)C)nn4-c4ccc(C)cc4)c3)c[nH]c2n1 [Compound 32]
- Residual activity (% of control), ACVR2B ([1]; Assay Conc. 1.0E-05 M): 98 % of control
- Residual activity (% of control), ACVR2B ([1]; Assay Conc. 1.0E-06 M): 123 % of control
- Residual activity (% of control), ARAF YDYD ([2]; Assay Conc. 1.0E-05 M): 89 % of control
- Residual activity (% of control), ARAF YDYD ([2]; Assay Conc. 1.0E-06 M): 116 % of control
- Residual activity (% of control), COT ([3]; Assay Conc. 1.0E-05 M): 69 % of control
- Residual activity (% of control), COT ([3]; Assay Conc. 1.0E-06 M): 96 % of control
- Residual activity (% of control), CHK2 ([4]; Assay Conc. 1.0E-05 M): 64 % of control
- Residual activity (% of control), CHK2 ([4]; Assay Conc. 1.0E-06 M): 90 % of control
- Residual activity (% of control), AuroraB ([5]; Assay Conc. 1.0E-05 M): 74 % of control
- Residual activity (% of control), AuroraB ([5]; Assay Conc. 1.0E-06 M): 107 % of control
- Residual activity (% of control), CK2alpha2 ([6]; Assay Conc. 1.0E-05 M): 92 % of control
- Residual activity (% of control), CK2alpha2 ([6]; Assay Conc. 1.0E-06 M): 101 % of control
- Residual activity (% of control), DAPK2 ([7]; Assay Conc. 1.0E-05 M): 88 % of control
- Residual activity (% of control), DAPK2 ([7]; Assay Conc. 1.0E-06 M): 93 % of control
- Residual activity (% of control), CK1delta ([8]; Assay Conc. 1.0E-05 M): 85 % of control
- Residual activity (% of control), CK1delta ([8]; Assay Conc. 1.0E-06 M): 98 % of control
- Residual activity (% of control), BRSK2 ([9]; Assay Conc. 1.0E-05 M): 84 % of control
- Residual activity (% of control), BRSK2 ([9]; Assay Conc. 1.0E-06 M): 103 % of control
- LRRK2 inhibition in the 33PanQinase screen [10]: not detected as a LRRK2 inhibitor
- Residual activity (% of control), DCAMKL2 ([11]; Assay Conc. 1.0E-05 M): 91 % of control
- Residual activity (% of control), DCAMKL2 ([11]; Assay Conc. 1.0E-06 M): 103 % of control
- Residual activity (% of control), ALK ([12]; Assay Conc. 1.0E-05 M): 23 % of control
- Residual activity (% of control), ALK ([12]; Assay Conc. 1.0E-06 M): 64 % of control
- Residual activity (% of control), BTK ([13]; Assay Conc. 1.0E-05 M): 37 % of control
- Residual activity (% of control), BTK ([13]; Assay Conc. 1.0E-06 M): 80 % of control
- Residual activity (% of control), CDK13/CycK ([14]; Assay Conc. 1.0E-05 M): 71 % of control
- Residual activity (% of control), CDK13/CycK ([14]; Assay Conc. 1.0E-06 M): 83 % of control
- Residual activity (% of control), CIT 1-450 ([15]; Assay Conc. 1.0E-05 M): 71 % of control
- Residual activity (% of control), CIT 1-450 ([15]; Assay Conc. 1.0E-06 M): 100 % of control
- Residual activity (% of control), ACVR1B ([16]; Assay Conc. 1.0E-05 M): 76 % of control
- Residual activity (% of control), ACVR1B ([16]; Assay Conc. 1.0E-06 M): 93 % of control
- Residual activity (% of control), CDK6/CycD1 ([17]; Assay Conc. 1.0E-05 M): 74 % of control
- Residual activity (% of control), CDK6/CycD1 ([17]; Assay Conc. 1.0E-06 M): 127 % of control
- Residual activity (% of control), CDK6/CycD2 ([17]; Assay Conc. 1.0E-05 M): 80 % of control
- Residual activity (% of control), CDK6/CycD2 ([17]; Assay Conc. 1.0E-06 M): 109 % of control
- Residual activity (% of control), CDK6/CycD3 ([17]; Assay Conc. 1.0E-05 M): 73 % of control
- Residual activity (% of control), CDK6/CycD3 ([17]; Assay Conc. 1.0E-06 M): 94 % of control
- remaining activity at 1 µM [18]: < 50%
- Residual activity (% of control), AMPKalpha1 ([19]; Assay Conc. 1.0E-05 M): 85 % of control
- Residual activity (% of control), AMPKalpha1 ([19]; Assay Conc. 1.0E-06 M): 95 % of control
- Residual activity (% of control), CSF1R ([20]; Assay Conc. 1.0E-05 M): 71 % of control
- Residual activity (% of control), CSF1R ([20]; Assay Conc. 1.0E-06 M): 100 % of control
- Residual activity (% of control), CDK3/CycC ([21]; Assay Conc. 1.0E-05 M): 65 % of control
- Residual activity (% of control), CDK3/CycC ([21]; Assay Conc. 1.0E-06 M): 106 % of control
- Residual activity (% of control), CDK3/CycE1 ([21]; Assay Conc. 1.0E-05 M): 75 % of control
- Residual activity (% of control), CDK3/CycE1 ([21]; Assay Conc. 1.0E-06 M): 115 % of control
- Residual activity (% of control), AKT1 ([22]; Assay Conc. 1.0E-05 M): 91 % of control
- Residual activity (% of control), AKT1 ([22]; Assay Conc. 1.0E-06 M): 103 % of control
- Residual activity (% of control), CDK4/CycD1 ([23]; Assay Conc. 1.0E-05 M): 57 % of control
- Residual activity (% of control), CDK4/CycD1 ([23]; Assay Conc. 1.0E-06 M): 87 % of control
- Residual activity (% of control), CDK4/CycD2 ([23]; Assay Conc. 1.0E-05 M): 49 % of control
- Residual activity (% of control), CDK4/CycD2 ([23]; Assay Conc. 1.0E-06 M): 111 % of control
- Residual activity (% of control), CDK4/CycD3 ([23]; Assay Conc. 1.0E-05 M): 87 % of control
- Residual activity (% of control), CDK4/CycD3 ([23]; Assay Conc. 1.0E-06 M): 102 % of control

— article PMC12136037, “Type II kinase inhibitors that target Parkinson’s disease–associated LRRK2” (Science Advances, 2025)
